Measured values from PMC3479139, “Diverse Small Molecule Inhibitors of Human Apurinic/Apyrimidinic Endonuclease APE1 Identified from a Screen of a Large Public Collection” (PLoS ONE, 2012).

Columns and labels:
APE1 [1] = molecular target: T1, APE1 (Homo sapiens, UniProt P27695); test: Fluorogenic kinetic qHTS APE1 incision assay (primary screen and retest of cherrypicked samples); format: biochemical;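 also: purified APE1 cleaving a fluorophore/dark-quencher labelled 17-mer duplex DNA bearing a tetrahydrofuran AP site, fluorescence rise followed kinetically over the first 2 min, inhibition normalized to controls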
T1 construct: made in house
T1 sequence (P27695 whole entry): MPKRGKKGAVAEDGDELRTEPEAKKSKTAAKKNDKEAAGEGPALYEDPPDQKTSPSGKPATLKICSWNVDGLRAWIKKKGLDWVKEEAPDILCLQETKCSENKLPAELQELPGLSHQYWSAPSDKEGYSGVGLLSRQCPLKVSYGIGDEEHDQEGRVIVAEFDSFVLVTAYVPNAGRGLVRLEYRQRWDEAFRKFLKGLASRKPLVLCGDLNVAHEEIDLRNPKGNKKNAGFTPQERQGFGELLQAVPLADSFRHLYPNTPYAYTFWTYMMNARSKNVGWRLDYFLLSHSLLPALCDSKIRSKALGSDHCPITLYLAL

APE1 [2] = molecular target: T1, APE1; test: Gel-based APE1 incision assay with fluorescence (TAMRA) detection; format: biochemical
Method: To test the compounds’ inhibitory activity after the primary screen, two assays designed to monitor the cleavage of substrate to product through electrophoretic separation were utilized. The radiotracer incision assay, utilizing a ^32P-labeled substrate, was performed essentially as described [21], [31], [32]. Incision reactions utilizing ^32P-labeled substrate were carried out for 5 min at 37°C. After the addition of an equal volume of stop buffer (0.05% bromophenol blue and xylene cyanol, 20 mM EDTA, 95% formamide), the substrate and product were separated on a standard polyacrylamide denaturing gel and quantified by PhosphorImager analysis [32]. […] APE1 cleavage of the substrate results in a 18-mer TAMRA-labeled fragment which was separated by a non-denaturing polyacrylamide gel electrophoresis and quantitated in a Gel Doc XR imaging system, BioRad (Hercules, CA). The advantage of this assay is that it can be used in a relatively high throughput mode with the inhibitors tested at a range of concentrations (0.17 µM to 125 µM was used here). APE1 (0.15 nM) was added to a reaction mixture of 20 µL containing assay buffer (40 mM HEPES pH 7.5, 50 mM NaCl, 1 mM MgCl2 and 2 mM DTT), and labeled ds DNA substrate (final 75 nM). The mixture was incubated at RT for 15 min, and the reaction was stopped by the addition 20 µL of 2X dye stop solution (10% glycerol, 20 mM EDTA and bromophenol blue). Then 10 µL of the mixture was resolved on 20% polyacrylamide gel in 1X Tris-borate EDTA running buffer at 250 V for 40 min.
To eliminate false positive hits, all 595 confirmed molecules were tested for their ability to inhibit APE1 incision activity using biochemical assays that involve electrophoretic separation of the substrate and cleavage product.

APE1 [3] = molecular target: T1, APE1; test: Fluorescence polarization (FP) displacement assay of APE1 binding to AP-DNA probe; conditions: read-out: FP IC50;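 also: TAMRA 5′-labeled duplex DNA with THF abasic site (5 nM) and APE1 (20 nM), Mg2+-free buffer, 15 min at room temperature, inhibition seen as lowered polarization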
[4] = molecular target: double-stranded 17-mer DNA fragment; test: ThO (Thiazole Orange) DNA displacement assay; format: binding; conditions: read-out: ThO-DNA binding IC50;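 also: miniaturized displacement of the intercalating dye from unlabeled duplex DNA, used to flag nonspecific DNA binders, chiefly intercalators, groove binders may be missed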
Text: The double-stranded 17-mer DNA fragment used in the ThO DNA binding assay was of the same sequence as the fluorogenic HTS substrate but carried no dye labels.
(§1) In order to screen out nonselective compounds, such as non-specific DNA binders and inhibitors of related enzymes, we used a miniaturized ThO DNA displacement assay and a counterscreen against the bacterial endonuclease E. coli Endo IV, respectively, following the previously published protocols [21].
To detect screening hits that inhibit APE1 activity through non-specific DNA interactions, we employed a previously established miniaturized ThO dye displacement assay [21]. […] We note that the ThO assay reports primarily on DNA binders acting through intercalation, while potentially missing other types of DNA binders, such as those acting through the minor groove.

E. coli Endo IV = molecular target: T2, E. coli Endo IV (Escherichia coli, UniProt P0A6C1); test: E. coli Endo IV profiling counterscreen; format: biochemical; conditions: read-out: EndoIV IC50;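 also: selectivity counterscreen of candidate APE1 inhibitors against the bacterial endonuclease Endo IV, run in the same assay format as the primary APE1 high-throughput screen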
T2 construct: made in house
Text: as §1
To probe the selectivity of the candidate APE1 inhibitors, we tested them against E. coli EndoIV [36], employing the same assay as used in the HTS.

HeLa cells = test: MMS potentiation assay (CellTiter Glo viability); format: cell-based, human; set-up: key: N.A., no activity observed; P, positive; I, inconclusive; N.T., not tested
Method: HeLa cells were plated at 6000 cells/well in DMEM culture medium containing 10% FBS into white solid bottom 384-well cell culture plates. The plates were incubated at 37°C overnight for cell attachment, followed by media replacement. The fresh medium contained serial dilutions of compounds of interest in the presence (0.4 mM final) or absence of MMS. The plates were incubated for 24 h at 37°C. Cell viability was determined by luminescence detection after an addition of 15 µL of CellTiter Glo reagent (Promega, Madison, WI). Percent viability was calculated for each concentration of compound tested in duplicate by relating the corresponding luminescence to that of a negative DMSO vehicle control. MMS potentiation trends were defined as follows: negative (-), if cell viability in the compound-plus-MMS treatment was the same as that of the DMSO-plus-MMS control (overlapping dose-response curves); inconclusive (I), if the shift in the cell viability dose-response upon MMS inclusion relative to compound-alone was less than 30%; and positive (P), if the difference between the compound-plus-MMS and compound-alone curves was at least 30%, and maintained within at least a two-fold compound concentration span.
To examine the biological prospects of the top compounds, we tested their ability to inhibit APE1 DNA repair activity by assessing enhancement of MMS toxicity in mammalian cells. MMS creates methylated-base damage to genomic DNA, which, when excised by an alkylpurine DNA glycosylase, results in a high number of cytotoxic AP sites. We compared the viability of HeLa cells exposed to a dilution series of inhibitor alone to a combination of a fixed MMS concentration with the same dilution series of inhibitor by using a standard CellTiter Glo luminescence assay. This technique measures the number of viable cells in culture based on quantitation of the ATP present, which signals the presence of metabolically active cells. The assay was further optimized for 384-well plates, allowing a high-throughput testing of multiple hits at multiple concentrations, a scope of investigation previously impossible due to the very low throughput of the traditionally applied colony formation assay.
From the 223 compounds found positive in the gel-based APE1 assays, exclusion of the most promiscuous hits, that is, those that were both DNA binders and EndoIV-inhibitory, yielded a set of 170 compounds (Figure 3). This shortened group of hits was tested in the cell-based potentiation assay for their ability to dose-dependently enhance sensitivity of HeLa cells to the alkylating agent MMS.

[5] = initial quantitative high-throughput screen, read-out: APE1 qHTS IC50
[6] = retest of cherrypicked sample, read-out: APE1 Retest IC50
[7] = entries 113-223: fluorophore detection, estimated IC50, read-out: Gel-based electrophoretic separation assay with fluorophore detection, estimated IC50 (column headed Radiotracer Assay (%Activity))
[8] = estimated IC50, fluorophore detection, entries 113-223, read-out: F-PAGE Assay IC50

Compound `Cc1sc2ncnc(SCC(=O)Nc3ncccc3O)c2c1C` [MLS002181609] has an IC50 (APE1 [1]; [5]) of 29.9 µM, an IC50 (APE1 [1]; [6]) of 10.2 µM and an IC50 (APE1 [2]; [7]) of 14.1 µM. For the same compound, the IC50 (APE1 [3]) was 20.4 µM, the IC50 [4] was over 57 µM and the IC50 (E. coli Endo IV) was over 57 µM.

Compound `O=C1C=C(c2ccc3cc[nH]c3c2)C[C@@H](c2ccc3c(c2)OCO3)C1` [MLS001060910] has an IC50 (APE1 [1]; [5]) of 11.9 µM, an IC50 (APE1 [1]; [6]) of 18.2 µM and an IC50 (APE1 [2]; [8]) of 3.2 µM. The IC50 (APE1 [3]) was over 57 µM, the IC50 [4] was over 57 µM and the IC50 (E. coli Endo IV) was over 57 µM.

Compound `O=C(COC(=O)c1ccccc1)Nc1ncc([N+](=O)[O-])s1` [MLS002171184] has an IC50 (APE1 [1]; [5]) of 3.4 µM, an IC50 (APE1 [1]; [6]) of 11.5 µM and an IC50 (APE1 [2]; [8]) of 1.6 µM. It also gave an IC50 (APE1 [3]) of over 57 µM, an IC50 [4] of 32.4 µM and an IC50 (E. coli Endo IV) of over 57 µM.

`Cc1ccccc1CN1CCN(Cc2cc(=O)c3ccccc3[nH]2)CC1CCO` (stereo not drawn) [MLS001000225] was tested, and the IC50 [4] was over 57 µM, the IC50 (E. coli Endo IV) was over 57 µM and the “MMS Assay: potentiation of the genotoxic effect of methylmethane sulfonate” value (HeLa cells) was “I”.

With `Cc1ccc(NC(=O)C(c2ccccc2)N2CCN(CC(=O)N3CCOCC3)CC2)cc1Cl` (stereo not drawn) [MLS002162303] the IC50 (APE1 [1]; [5]) was 10.6 µM, the IC50 (APE1 [1]; [6]) was 9.1 µM and the IC50 (APE1 [2]; [8]) was 3.5 µM. The IC50 (APE1 [3]) was over 57 µM, the IC50 [4] was over 57 µM and the IC50 (E. coli Endo IV) was over 57 µM.

Compound `Nc1c(/C=C2/C=CC(=O)C(O)=C2)c(=O)nc2sc(CC(=O)N3CCCC3)nn12` [MLS001139292] has an IC50 (APE1 [1]; [5]) of 10.6 µM, an IC50 (APE1 [1]; [6]) of 6.5 µM and an IC50 (APE1 [2]; [8]) of 1 µM. The IC50 (APE1 [3]) was over 57 µM, the IC50 [4] was over 57 µM and the IC50 (E. coli Endo IV) was over 57 µM.

In the case of `COCCN(C(=O)COC(=O)c1cc2c(s1)CCC2)c1c(N)n(Cc2ccccc2)c(=O)[nH]c1=O` [MLS001080179], the IC50 (APE1 [1]; [5]) is reported as 0.8 µM, the IC50 (APE1 [1]; [6]) is reported as 1.1 µM and the IC50 (APE1 [2]; [8]) is reported as 0.3 µM. The IC50 (APE1 [3]) was over 57 µM, the IC50 [4] was over 57 µM and the IC50 (E. coli Endo IV) was over 57 µM.

With `COc1ccc(NC(=O)c2cc(-c3ccco3)nc3ccccc23)cn1` [MLS002164354] the IC50 (APE1 [1]; [5]) was 11.9 µM, the IC50 (APE1 [1]; [6]) was 14.5 µM and the IC50 (APE1 [2]; [8]) was 7.1 µM. For the same compound, the IC50 (APE1 [3]) was 36.3 µM, the IC50 [4] was over 57 µM and the IC50 (E. coli Endo IV) was 22.9 µM.

`O=C(O)C1CCCCC1C(=O)Nc1cccc(Br)c1` (stereo not drawn) [MLS002152987] was tested, and the IC50 (APE1 [1]; [5]) was 0.5 µM, the IC50 (APE1 [1]; [6]) was 5.1 µM and the IC50 (APE1 [2]; [8]) was 0.9 µM. For the same compound, the IC50 (APE1 [3]) was over 57 µM, the IC50 [4] was over 57 µM and the IC50 (E. coli Endo IV) was over 57 µM.

For `CC(=O)c1cccc(OCC(=O)N(C)CC(=O)NCc2ccco2)c1` [MLS002251323], the IC50 (APE1 [1]; [5]) was 9.5 µM, the IC50 (APE1 [1]; [6]) was 9.1 µM and the IC50 (APE1 [2]; [8]) was 4 µM. For the same compound, the IC50 (APE1 [3]) was over 57 µM, the IC50 [4] was over 57 µM and the IC50 (E. coli Endo IV) was over 57 µM.

Compound `CCCN(C(=O)c1cccc(-n2cccc2)c1)c1c(N)n(Cc2ccccc2)c(=O)[nH]c1=O` [MLS001098232] has an IC50 (APE1 [1]; [5]) of 6.7 µM, an IC50 (APE1 [1]; [6]) of 6.5 µM and an IC50 (APE1 [2]; [8]) of 2.8 µM. The IC50 (APE1 [3]) was 20.4 µM, the IC50 [4] was over 57 µM and the IC50 (E. coli Endo IV) was over 57 µM.

In the case of `N#Cc1c(NC(=O)COC(=O)c2ccc(O)cc2O)sc2c1CCC2` [MLS001159876], the IC50 (APE1 [1]; [5]) is reported as 11.9 µM, the IC50 (APE1 [1]; [6]) is reported as 18.2 µM and the IC50 (APE1 [2]; [7]) is reported as 11.2 µM. The IC50 (APE1 [3]) was over 57 µM, the IC50 [4] was 11.5 µM and the IC50 (E. coli Endo IV) was over 57 µM.

In the case of `O=C(c1cccc(-n2cccc2)c1)N1CCN(S(=O)(=O)c2ccccc2)CC1` [MLS001139594], the IC50 (APE1 [1]; [5]) is reported as 1.5 µM, the IC50 (APE1 [1]; [6]) is reported as 11.5 µM and the IC50 (APE1 [2]; [8]) is reported as 2.5 µM. It also gave an IC50 (APE1 [3]) of over 57 µM, an IC50 [4] of over 57 µM and an IC50 (E. coli Endo IV) of over 57 µM.

Compound `Nc1c(/C=C2/C=CC(=O)C(O)=C2)c(=O)nc2sc(CC(=O)N3CCCCC3)nn12` [MLS001139223] has an IC50 (APE1 [1]; [5]) of 1.9 µM, an IC50 (APE1 [1]; [6]) of 2 µM and an IC50 (APE1 [2]; [8]) of 2.5 µM. For the same compound, the IC50 (APE1 [3]) was over 57 µM, the IC50 [4] was over 57 µM and the IC50 (E. coli Endo IV) was over 57 µM.

Work on `O=C(NC1CC1)C1CCN(S(=O)(=O)c2cc([N+](=O)[O-])ccc2Cl)CC1` [MLS002162311] yielded an IC50 (APE1 [1]; [5]) of 10.6 µM, an IC50 (APE1 [1]; [6]) of 32.4 µM and an IC50 (APE1 [2]; [8]) of 8.9 µM. For the same compound, the IC50 (APE1 [3]) was over 57 µM, the IC50 [4] was 36.3 µM and the IC50 (E. coli Endo IV) was over 57 µM.

`COc1cccc(NC(=O)CN(C)C(=O)c2cc3c(s2)CCC3)c1` [MLS001142077] was tested, and the IC50 (APE1 [1]; [5]) was 10.6 µM, the IC50 (APE1 [1]; [6]) was 32.4 µM and the IC50 (APE1 [2]; [7]) was 10 µM. The IC50 (APE1 [3]) was over 57 µM, the IC50 [4] was 20.4 µM and the IC50 (E. coli Endo IV) was over 57 µM.
